Results from US10758534B2 (Vertex Pharmaceuticals Incorporated, priority 2014, dated 2020).

Assays:
F508del [1] = target: T1, F508del (Homo sapiens, UniProt P13569, DEL508-508); assay: Protocol 1: membrane potential optical assay (FLIPR III, voltage sensing dye), identification of potentiator compounds; format: cell-based; settings: Table 3, compounds of Table 1
T1 construct: expressed in transfected cells
Text: Membrane Potential Optical Methods for Assaying F508del Modulation Properties of Compounds
The assay utilizes fluorescent voltage sensing dyes to measure changes in membrane potential using a fluorescent plate reader (e.g., FLIPR III, Molecular Devices, Inc.) as a readout for increase in functional F508del in NIH 3T3 cells. The driving force for the response is the creation of a chloride ion gradient in conjunction with channel activation by a single liquid addition step after the cells have previously been treated with compounds and subsequently loaded with a voltage sensing dye.
Identification of Potentiator Compounds
To identify potentiators of F508del, a double-addition HTS assay format was developed. This HTS assay utilizes fluorescent voltage sensing dyes to measure changes in membrane potential on the FLIPR III as a measurement for increase in gating (conductance) of F508del in temperature-corrected F508del NIH 3T3 cells. The driving force for the response is a Cl^− ion gradient in conjunction with channel activation with forskolin in a single liquid addition step using a fluorescent plate reader such as FLIPR III after the cells have previously been treated with potentiator compounds (or DMSO vehicle control) and subsequently loaded with a redistribution dye.
Bath Solution #1: (in mM) NaCl 160, KCl 4.5, CaCl2 2, MgCl2 1, HEPES 10, pH 7.4 with NaOH.
Chloride-free bath solution: Chloride salts in Bath Solution #1 (above) are substituted with gluconate salts.
NIH3T3 mouse fibroblasts stably expressing F508del are used for optical measurements of membrane potential. The cells are maintained at 37° C. in 5% CO2 and 90% humidity in Dulbecco's modified Eagle's medium supplemented with 2 mM glutamine, 10% fetal bovine serum, 1×NEAA, β-ME, 1× pen/strep, and 25 mM HEPES in 175 cm^2 culture flasks. For all optical assays, the cells were seeded at ˜20,000/well in 384-well matrigel-coated plates and cultured for 2 hrs at 37° C. before culturing at 27° C. for 24 hrs. for the potentiator assay. For the correction assays, the cells are cultured at 27° C. or 37° C. with and without compounds for 16-24 hours.

F508del [2] = target: T1, F508del; assay: Protocol 2: FRET membrane potential optical assay (VIPR), identification of correction compounds; format: cell-based; settings: F508del CFTR modulator activity; compounds of Table 1; read-out: EC30
How it was run: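 Single-addition HTS format: F508del-expressing NIH3T3 cells pre-incubated 16 hrs at 37° C. ± compound, with 27° C. culture as positive control. Channel activation by forskolin 10 μM and genistein 20 μM upon switch to gluconate bath, pH 7.4; read-out is FRET-based depolarization signal.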

T1 sequence (P13569 with tags, fused parts or gaps DEL508-508): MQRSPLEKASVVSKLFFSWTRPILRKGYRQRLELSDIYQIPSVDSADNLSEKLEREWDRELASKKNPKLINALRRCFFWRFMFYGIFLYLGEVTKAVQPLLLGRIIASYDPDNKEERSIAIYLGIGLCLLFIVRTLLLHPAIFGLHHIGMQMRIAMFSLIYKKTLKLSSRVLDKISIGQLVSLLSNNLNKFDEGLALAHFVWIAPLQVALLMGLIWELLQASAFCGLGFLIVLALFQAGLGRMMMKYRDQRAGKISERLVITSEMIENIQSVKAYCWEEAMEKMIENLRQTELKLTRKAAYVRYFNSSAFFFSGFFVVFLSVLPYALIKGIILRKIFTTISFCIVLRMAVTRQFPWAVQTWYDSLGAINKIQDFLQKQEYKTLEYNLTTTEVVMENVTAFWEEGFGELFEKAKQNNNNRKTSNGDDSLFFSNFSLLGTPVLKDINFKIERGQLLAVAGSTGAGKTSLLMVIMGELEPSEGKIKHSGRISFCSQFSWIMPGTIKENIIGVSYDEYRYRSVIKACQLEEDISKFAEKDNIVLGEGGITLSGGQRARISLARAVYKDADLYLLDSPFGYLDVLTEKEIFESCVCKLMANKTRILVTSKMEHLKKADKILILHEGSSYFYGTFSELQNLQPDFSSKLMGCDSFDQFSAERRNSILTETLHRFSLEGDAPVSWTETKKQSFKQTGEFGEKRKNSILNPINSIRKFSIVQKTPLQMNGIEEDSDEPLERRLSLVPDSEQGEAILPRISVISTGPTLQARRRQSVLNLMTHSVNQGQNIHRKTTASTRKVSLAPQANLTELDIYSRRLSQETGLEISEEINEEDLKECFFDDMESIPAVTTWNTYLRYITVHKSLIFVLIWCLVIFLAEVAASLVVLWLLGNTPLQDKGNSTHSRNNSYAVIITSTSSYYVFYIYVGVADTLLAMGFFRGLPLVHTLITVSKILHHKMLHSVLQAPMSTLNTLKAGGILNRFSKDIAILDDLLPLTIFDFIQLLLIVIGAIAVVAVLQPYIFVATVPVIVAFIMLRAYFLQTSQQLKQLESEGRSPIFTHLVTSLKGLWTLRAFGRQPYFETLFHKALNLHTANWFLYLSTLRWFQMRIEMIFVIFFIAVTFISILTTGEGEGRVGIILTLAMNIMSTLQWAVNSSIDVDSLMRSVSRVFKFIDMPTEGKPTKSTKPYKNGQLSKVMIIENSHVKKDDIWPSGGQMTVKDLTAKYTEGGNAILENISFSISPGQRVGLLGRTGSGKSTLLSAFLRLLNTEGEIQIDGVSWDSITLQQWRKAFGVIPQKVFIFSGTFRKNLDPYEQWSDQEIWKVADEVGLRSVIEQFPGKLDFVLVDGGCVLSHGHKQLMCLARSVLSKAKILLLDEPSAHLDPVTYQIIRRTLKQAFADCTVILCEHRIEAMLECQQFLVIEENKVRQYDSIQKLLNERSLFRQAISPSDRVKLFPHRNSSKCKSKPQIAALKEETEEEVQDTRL

Row | Compound | EC30 (F508del [2]) [nM] | EC30 (F508del [1])
1 | CCC1(C)CC(C)CN1c1nc(-c2cc(F)cc(OCC(C)C)c2)ccc1C(=O)NS(=O)(=O)c1cccc(N)n1 (single isomer, unassigned) [Compound 1729, N-[(6-amino-2-pyridyl)sulfonyl]-2-(2-ethyl-2,4-dimethyl-pyrrolidin-1-yl)-6-(3-fluoro-5-isobutoxy-phenyl)pyridine-3-carboxamide] |  | +++ (“+++” means <3 uM)
2 | CC[C@]1(C)C[C@H](C)CN1c1nc(-c2cc(F)cc(OCC(C)C)c2)ccc1C(=O)NS(=O)(=O)c1cccc(N)n1 (single isomer, unassigned) [Compound 1817, N-[(6-amino-2-pyridyl)sulfonyl]-2-(2-ethyl-2,4-dimethyl-pyrrolidin-1-yl)-6-(3-fluoro-5-isobutoxy-phenyl)pyridine-3-carboxamide] |  | +++ (“+++” means <3 uM)
3 | CC(C)COc1cc(F)cc(-c2ccc(C(=O)NS(=O)(=O)c3cccc(N)n3)c(N3CC(C)CCC3C)n2)c1 (single isomer, unassigned) [Compound 1855, N-[(6-amino-2-pyridyl)sulfonyl]-2-(2,5-dimethyl-1-piperidyl)-6-(3-fluoro-5-isobutoxy-phenyl)pyridine-3-carboxamide] |  | +++ (“+++” means <3 uM)
4 | CC(C)COc1cc(F)cc(-c2ccc(C(=O)NS(=O)(=O)c3cccc(N)n3)c(N3CCC(C)C(C)C3)n2)c1 (single isomer, unassigned) [Compound 1863, N-[(6-amino-2-pyridyl)sulfonyl]-2-(3,4-dimethyl-1-piperidyl)-6-(3-fluoro-5-isobutoxy-phenyl)pyridine-3-carboxamide] |  | +++ (“+++” means <3 uM)
5 | CC(C)COc1cc(F)cc(-c2ccc(C(=O)NS(=O)(=O)c3cccc(N)n3)c(N3CC(C)CCC3C)n2)c1 (single isomer, unassigned) [Compound 1864, N-[(6-amino-2-pyridyl)sulfonyl]-2-(2,5-dimethyl-1-piperidyl)-6-(3-fluoro-5-isobutoxy-phenyl)pyridine-3-carboxamide] |  | +++ (“+++” means <3 uM)
6 | CC(C)COc1cc(F)cc(-c2ccc(C(=O)NS(=O)(=O)c3cccc(N)n3)c(N3CC(C)CCC3C)n2)c1 (single isomer, unassigned) [Compound 1993, N-[(6-amino-2-pyridyl)sulfonyl]-2-(2,5-dimethyl-1-piperidyl)-6-(3-fluoro-5-isobutoxy-phenyl)pyridine-3-carboxamide] |  | +++ (“+++” means <3 uM)
7 | CC(C)CC(C)Nc1ccc(-c2ccc(C(=O)NS(=O)(=O)c3cccc(N)n3)c(N3[C@H](C)CC[C@@H]3C)n2)cn1 (stereo in doubt) [Compound 1463, N-[(6-amino-2-pyridyl)sulfonyl]-6-[6-[[(1 S)-1,3-dimethylbutyl]amino]-3-pyridyl]-2-[(2S,5R)-2,5-dimethylpyrrolidin-1-yl]pyridine-3-carboxamide] |  | +++ (“+++” means <3 uM)
8 | CC1CN(c2ncccc2C(=O)NS(=O)(=O)c2cccc(Oc3ccc(OC(C)(C)C)cc3)n2)C(C)(C)C1 (stereo not shown) [Compound 2739] | < 3000 | 
9 | CC1CN(c2ncccc2C(=O)NS(=O)(=O)c2cccc(OCCc3cccc(F)c3)n2)C(C)(C)C1 (stereo not shown) [Compound 2740] | < 3000 | 
10 | CC#CCOc1cccc(S(=O)(=O)NC(=O)c2cccnc2N2CC(C)CC2(C)C)n1 (stereo not shown) [Compound 2741] | 3000 to 10000 | 
11 | CC1CN(c2ncccc2C(=O)NS(=O)(=O)c2cccc(OCCN)n2)C(C)(C)C1 (stereo not shown) [Compound 2742] | 3000 to 10000 | 

The next lines start with results.

Row | EC30 (F508del [2]) [nM] | Compound | EC30 (F508del [1])
12 | < 3000 | CC1CN(c2ncccc2C(=O)NS(=O)(=O)c2cccc(Nc3ccc(NC(=O)OC(C)(C)C)cc3)n2)C(C)(C)C1 (stereo not shown) [Compound 2743] | 
13 | < 3000 | CC1CN(c2ncccc2C(=O)NS(=O)(=O)c2cccc(N(C)Cc3ccccc3Cl)n2)C(C)(C)C1 (stereo not shown) [Compound 2744] | 
14 | < 3000 | CC1CN(c2ncccc2C(=O)NS(=O)(=O)c2cccc(N[C@H](C)C(C)(C)C)n2)C(C)(C)C1 (stereo partly shown) [Compound 2745] | 
15 | < 3000 | CC(C)CN(C)c1cccc(S(=O)(=O)NC(=O)c2cccnc2N2CC(C)CC2(C)C)n1 (stereo not shown) [Compound 2746] | 
16 | < 3000 | CC1CN(c2ncccc2C(=O)NS(=O)(=O)c2cccc(N3CCCCC3C)n2)C(C)(C)C1 (stereo not shown) [Compound 2747] | 
